Results from patent US10351566B2, “Therapeutic compounds for pain and synthesis thereof” (priority 2015, dated 2019).
“And” between values parts separate entries of the source, which are not always exact repeats. Identical values can stand only once. “Also recorded” adds a separate entry of the source. Like-named read-outs stand apart in the source and are kept apart here.

Assays:
[1] = Tolerability / repeated dosing safety in mice; format: in vivo; conditions: for Findings: Mice
Procedure: The tolerability of Formula 1 was evaluated in mice and rats.

[2] = in vivo
Description: Formula 1 was discovered following a comprehensive Senerga® Phenotypic screening.

[3] = format: in vivo, mice; conditions: Brain, SC, Mean
[4] = test system: Taxol-induced neuropathic pain; experiment: Taxol-induced neuropathic pain in mice, oral route; format: in vivo
Procedure: Study outline in brief: Animals were dosed daily with Taxol for a period of 8 consecutive days (Day 0 to Day 7). On study day 8, prior to drug dosing, the decrease in withdrawal force (tactile allodynia) was verified by applying the von Frey test. After assigning the animals to their treatment groups, the animals were treated daily for a period of 5 days with either vehicle or Formula 1 at different doses. Gabapentin at a dose of 150 mg/kg was dosed only on days of testing (day 8 and day 14).
The activity of Formula 1 following oral administration was assessed using the Taxol model (see Study Outline in section 7.1). […] Gabapentin dosed at 150 mg/kg was active for a period of 4 h post-dosing.

in vitro = in vitro ADME; conditions: 1 μM, read-out: plasma protein bound (converted)
Procedure: The plasma protein binding assay for Formula 1 was conducted in mouse and human plasma at a single concentration of 1 μM using the method of equilibrium dialysis. […] The plasma protein binding of the compound is acceptable.

in vivo [5] = conditions: mice; for half-life: read-out: terminal half-life (converted)
Procedure: Pharmacokinetic studies of MD-354 were performed in mice following 50 mg/kg oral and 5 mg/kg intravenous administration (FIG. 17).
The plasma concentration decreased in a multi-phasic manner to 0.76 ng/mL at 8 hours post-dose.

[6] = format: in vivo, rats; conditions: for Findings: PO, Rat
Procedure: The tolerability of Formula 1 was evaluated in mice and rats. […] The compound was also tolerated following a single dose of 100 mg/kg in the mouse.

in vivo [7] = experiment: in vivo; design: species or system mice; conditions: for HL_Lambda_z / Cl_F_obs / Vz_F_obs / AUC(0-t) / Cmax / Tmax / AUC(0-inf): Mean; for Kp / AUC(0-t) / Cmax / Tmax / AUC(0-inf): mouse, in vivo; for Kp: po, 50 mg/kg, mice, oral 50 mg/kg, 5 min to 8 h; for AUC(0-inf): read-out: AUCINF_obs
Procedure: Tissue distribution studies were conducted by administration of the compound to mice at a dose of 50 mg/kg orally and intravenously. Plasma and tissue samples were collected at various times from 5 min to 8 h. The tissue-to-plasma concentration ratios measured after oral dosing were: 0.6 (range: 0.3-1.1, brain), 3.2 (range: 1.9-5.0, spinal cord), 6.5 (range: 0.9-10.3, liver), 24.0 (range: 5.1-59.9, lung), 6.6 (range: 1.2-14.9, heart), 16.9 (range: 4.3-26.8, kidney), 77.5 (range: 11.5-341, spleen), 29.2 (range: 6.3-50.2, cecum), 67.4 (range: 11.6-326, colon), 5.2 (range: 2.1-8.0, testes). The concentration-time profiles of the compound in these tissues generally followed those in plasma. The tissue-to-plasma concentration ratios in these selected tissues are generally within the normal ranges of the marketed drugs.
There are complex equilibria between the compound concentrations in blood, CSF and spinal cord. A high concentration in the CSF would yield a large concentration in the spinal cord. Since Formula 1 is a Pgp substrate and highly tissue-bound, its higher concentrations in the spinal cord tissue compared to the brain tissue are not surprising (Table 2).

[8] = test system: selected targets (including some important cardiovascular safety-related targets); conditions: at 10 μM
Procedure: A Cerep activity screen was conducted and was negative against the selected targets at 10 μM (including some important cardiovascular safety-related targets) for Formula 1.

[9] = oral, two additional sets of data, listed as 354
[10] = Brain, second block of the table, route not given
[11] = Plasma, second block of the table, route not given
[12] = Spinal Cord, second block of the table, route not given

In the case of `CC(C)(C)C(=O)O[C@@H]1[C@@H]2[C@H]3C[C@H](C[C@@H]1N3Cc1ccccn1)CN2C(=O)CC(F)(F)F` (relative stereo) [Formula 1, (2S*,3S*,3aS*,6R*,7aR*)-1-(pyridin-2-ylmethyl)-4-(3,3,3-trifluoropropanoyl)octahydro-1H-2,6-methanopyrrolo[3,2-b]pyridin-3-yl pivalate], the Findings ([1]; IP, 10 mg/kg, 31 days) is reported as “NPF”, the Findings ([1]; IP, 30 mg/kg, 5 days) is reported as “NPF” and the Findings ([1]; PO, 50 mg/kg, 5 days) is reported as “NPF”. The Findings ([1]; SC, 60 mg/kg, 5 days) was “NPF”, the tolerability ([1]; mice, 5 days intraperitoneal dosing at 30 mg/kg) was “well tolerated” and the tolerability ([1]; mice, 5 days oral dosing at 50 mg/kg) was “well tolerated”. For the same molecule, the tolerability ([1]; mice, 5 days subcutaneous dosing at 60 mg/kg) was “well tolerated”, the tolerability ([1]; mouse, single dose of 100 mg/kg) was “tolerated” and the “activity in pain-related models” value [2] was “showed activity in pain-related models”. For the same molecule, the “effect on blood pressure” value [2] was “no effect on blood pressure”, the “effect on bodyweight or food consumption” value [2] was “no effect on bodyweight or food consumption” and the “effect on specific CNS-related tests” value [2] was “no effect on specific CNS-related tests”. The effect on swelling [2] was “not effective on swelling”, the post-mortem finding [2] was “no post-mortem finding” and the “withdrawal threshold of naïve animals” value [2] was “without affecting the withdrawal threshold of naïve animals”. For the same molecule, the HL_Lambda_z [3] was 0.39 h, the withdrawal force ([4]; Taxol mice, oral 50 mg/kg, 2 h post-single administration, study day 8) was “active in fully reversing the withdrawal force” and the withdrawal force ([4]; Taxol mice, oral 50 mg/kg, 24 h post-dosing (study day 14 pre-dosing)) was “significantly active”. The tolerance effect ([4]; Taxol mice, oral 50 mg/kg, repeated daily dosing) was “No tolerance effect was noted”, the “heat hyperalgesia (hotplate test)” value ([4]; Taxol mice, oral 50 mg/kg, 50 mg/kg) was “No activity was found; also recorded: not statistically different from the vehicle-treated group” and the “Dose of maximum activity” value ([4]; Taxol model, PO, mice) was <50 mg/kg. The “Duration of activity at maximum effect” value ([4]; Taxol model, PO, mice) was 24 H, the “Level of activity (% of maximum effect-baseline)” value ([4]; Taxol model, PO, mice) was 100% and the “Peak of activity (T)” value ([4]; Taxol model, PO, mice) was 2-6 H. For the same molecule, the fraction unbound (in vitro; human plasma) was 0.08, the fraction unbound (in vitro; mouse plasma) was 0.16 and the “plasma concentration at 8 hours post-dose” value (in vivo [5]; intravenous 5 mg/kg) was 6.74 ng/mL. For the same molecule, the “plasma concentration at 8 hours post-dose” value (in vivo [5]; oral 50 mg/kg) was 0.76 ng/mL, the “time to peak plasma concentration” value (in vivo [5]; oral 50 mg/kg) was ≤ 5 min and the “time to peak plasma concentration” value (in vivo [5]; oral, two additional sets of data) was ≤ 5 min. The oral bioavailability (in vivo [5]; [9]) was 14.7%, the peak plasma concentration (in vivo [5]; [9]) was 3157 ng/mL and 3001 ng/mL and the “plasma concentration at 8 hours post-administration” value (in vivo [5]; [9]) was 8.4 ng/mL and 11.4 ng/mL. It also gave a terminal half-life (in vivo [5]; [9]) of 75 min, a half-life (in vivo [5]; mouse, in vivo, iv, 5 mg/kg, intravenous 5 mg/kg, excluding the 8 h time point) of 21 min and a bioavailability (in vivo [5]; mouse, in vivo, oral 50 mg/kg vs intravenous 5 mg/kg, read-out: absolute oral bioavailability) of 10.5%. It also gave a half-life (in vivo [5]; mouse, in vivo, po, 50 mg/kg, oral 50 mg/kg) of 51 min, a bioavailability (in vivo [5]; mouse, in vivo, po, oral, two additional sets of data, read-out: oral bioavailability) of 14.1% and a half-life (in vivo [5]; mouse, in vivo, po, oral, two additional sets of data) of 71.4 min. For the same molecule, the C0 (in vivo [5]; mouse, in vivo, intravenous 5 mg/kg, read-out: initial plasma concentration (C0)) was 7940 ng/mL, the Vd (in vivo [5]; mouse, in vivo, intravenous 5 mg/kg, read-out: steady-state volume of distribution (Vss)) was 1.08 L/kg and the clearance (in vivo [5]; mouse, in vivo, intravenous 5 mg/kg, read-out: systemic plasma clearance (CLp)) was 46.1 mL/min/kg. The Cmax (in vivo [5]; mouse, in vivo, oral 50 mg/kg, read-out: peak plasma concentration (Cmax)) was 1930 ng/mL, the Findings ([6]; 50 mg/kg, 5 days) was “NPF” and the Findings ([6]; 100 mg/kg, 1 day) was “NPF”. The adverse effects ([6]; rats, oral, once daily 50 mg/kg for 5 days) was “did not show any adverse effects”, the HL_Lambda_z (in vivo [7]; [10]) was 0.74 h and the Cl_F_obs (in vivo [7]; Plasma, SC) was 120.292 mL/min/kg. The HL_Lambda_z (in vivo [7]; Plasma, SC) was 0.37 h, the Vz_F_obs (in vivo [7]; Plasma, SC) was 3.84783 L/kg and the Cl_F_obs (in vivo [7]; [11]) was 672.2167 mL/min/kg. For the same molecule, the HL_Lambda_z (in vivo [7]; [11]) was 1.20 h, the Vz_F_obs (in vivo [7]; [11]) was 72.1615 L/kg and the HL_Lambda_z (in vivo [7]; Spinal Cord, SC) was 0.53 h. For the same molecule, the HL_Lambda_z (in vivo [7]; [12]) was 1.56 h, the Kp (in vivo [7]; male, read-out: tissue-to-plasma concentration ratio, testes) was 5.2 and the Kp (in vivo [7]; male, read-out: tissue-to-plasma concentration ratio, testes, range) was 2.1 to 8. It also gave an AUC(0-t) (in vivo [7]; [10]) of 2770 ng·h/mL, a Cmax (in vivo [7]; [10]) of 6750 ng/mL and a Tmax (in vivo [7]; [10]) of 4.8 min. The AUC(0-t) (in vivo [7]; [11]) was 2590 ng·h/mL, the Cmax (in vivo [7]; [11]) was 3080 ng/mL and the AUC(0-inf) (in vivo [7]; [11]) was 2610 ng·h/mL. The AUC(0-t) (in vivo [7]; [12]) was 15500 ng·h/mL, the Cmax (in vivo [7]; [12]) was 30000 ng/mL and the Kp (in vivo [7]; read-out: tissue-to-plasma concentration ratio, brain) was 0.6. The Kp (in vivo [7]; read-out: tissue-to-plasma concentration ratio, brain, range) was 0.3 to 1.1, the Kp (in vivo [7]; read-out: tissue-to-plasma concentration ratio, cecum) was 29.2 and the Kp (in vivo [7]; read-out: tissue-to-plasma concentration ratio, cecum, range) was 6.3 to 50.2. For the same molecule, the Kp (in vivo [7]; read-out: tissue-to-plasma concentration ratio, colon) was 67.4, the Kp (in vivo [7]; read-out: tissue-to-plasma concentration ratio, colon, range) was 11.6 to 326 and the Kp (in vivo [7]; read-out: tissue-to-plasma concentration ratio, heart) was 6.6. It also gave a Kp (in vivo [7]; read-out: tissue-to-plasma concentration ratio, heart, range) of 1.2 to 14.9, a Kp (in vivo [7]; read-out: tissue-to-plasma concentration ratio, kidney) of 16.9 and a Kp (in vivo [7]; read-out: tissue-to-plasma concentration ratio, kidney, range) of 4.3 to 26.8. The Kp (in vivo [7]; read-out: tissue-to-plasma concentration ratio, liver) was 6.5, the Kp (in vivo [7]; read-out: tissue-to-plasma concentration ratio, liver, range) was 0.9 to 10.3 and the Kp (in vivo [7]; read-out: tissue-to-plasma concentration ratio, lung) was 24. It also gave a Kp (in vivo [7]; read-out: tissue-to-plasma concentration ratio, lung, range) of 5.1 to 59.9, a Kp (in vivo [7]; read-out: tissue-to-plasma concentration ratio, spinal cord) of 3.2 and a Kp (in vivo [7]; read-out: tissue-to-plasma concentration ratio, spinal cord, range) of 1.9 to 5. The Kp (in vivo [7]; read-out: tissue-to-plasma concentration ratio, spleen) was 77.5, the Kp (in vivo [7]; read-out: tissue-to-plasma concentration ratio, spleen, range) was 11.5 to 341 and the AUC(0-t) (in vivo [7]; sc, Brain) was 790 ng·h/mL. For the same molecule, the Cmax (in vivo [7]; sc, Brain) was 1380 ng/mL, the AUC(0-t) (in vivo [7]; sc, Plasma) was 1380 ng·h/mL and the Cmax (in vivo [7]; sc, Plasma) was 1900 ng/mL. For the same molecule, the AUC(0-t) (in vivo [7]; sc, Spinal Cord) was 6210 ng·h/mL, the Cmax (in vivo [7]; sc, Spinal Cord) was 11900 ng/mL and the Tmax (in vivo [7]; Plasma, SC) was 15 min. The AUC(0-inf) (in vivo [7]; Plasma, SC) was 1390 ng·h/mL and the “Cerep activity screen result” value [8] was “negative”.
